ChEMBL document CHEMBL4507272 (2021)

Key:
[1] = target: Megakaryocyte-associated tyrosine-protein kinase (Homo sapiens) (UniProt P42679); details: Compound concentration 1000.0 nM
[2] = target: Serine/threonine-protein kinase ULK2 (Homo sapiens) (UniProt Q8IYT8); details: Compound concentration 1000.0 nM
[3] = target: 5-hydroxytryptamine receptor 1A (Homo sapiens, UniProt P08908); assay: GPCRScan assay: inhibition of 5-HT1A; parameters: radioligand conc. used [nm] 0.5 – 1.0, parental cells stable CHO
Sequence of 5-hydroxytryptamine receptor 1A (P08908 whole entry): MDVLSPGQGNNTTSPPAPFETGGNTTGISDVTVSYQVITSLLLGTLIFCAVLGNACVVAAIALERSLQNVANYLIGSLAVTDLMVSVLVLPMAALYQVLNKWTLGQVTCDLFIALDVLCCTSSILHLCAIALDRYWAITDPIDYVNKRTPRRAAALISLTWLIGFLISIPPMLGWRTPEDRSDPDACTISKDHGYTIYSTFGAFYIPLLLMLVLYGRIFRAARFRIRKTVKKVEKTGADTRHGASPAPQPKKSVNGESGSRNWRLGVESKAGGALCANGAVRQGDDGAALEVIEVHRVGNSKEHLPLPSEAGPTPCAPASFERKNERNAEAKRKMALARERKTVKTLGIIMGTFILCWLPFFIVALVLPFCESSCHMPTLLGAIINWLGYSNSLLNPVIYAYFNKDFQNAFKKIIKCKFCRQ

[4] = target: Tyrosine-protein kinase JAK1 (Homo sapiens) (UniProt P23458); details: Compound concentration 1000.0 nM
[5] = target: MAP/microtubule affinity-regulating kinase 4 (Homo sapiens) (UniProt Q96L34); details: Compound concentration 1000.0 nM
Sequence of MAP/microtubule affinity-regulating kinase 4 (Homo sapiens) (Q96L34 whole entry): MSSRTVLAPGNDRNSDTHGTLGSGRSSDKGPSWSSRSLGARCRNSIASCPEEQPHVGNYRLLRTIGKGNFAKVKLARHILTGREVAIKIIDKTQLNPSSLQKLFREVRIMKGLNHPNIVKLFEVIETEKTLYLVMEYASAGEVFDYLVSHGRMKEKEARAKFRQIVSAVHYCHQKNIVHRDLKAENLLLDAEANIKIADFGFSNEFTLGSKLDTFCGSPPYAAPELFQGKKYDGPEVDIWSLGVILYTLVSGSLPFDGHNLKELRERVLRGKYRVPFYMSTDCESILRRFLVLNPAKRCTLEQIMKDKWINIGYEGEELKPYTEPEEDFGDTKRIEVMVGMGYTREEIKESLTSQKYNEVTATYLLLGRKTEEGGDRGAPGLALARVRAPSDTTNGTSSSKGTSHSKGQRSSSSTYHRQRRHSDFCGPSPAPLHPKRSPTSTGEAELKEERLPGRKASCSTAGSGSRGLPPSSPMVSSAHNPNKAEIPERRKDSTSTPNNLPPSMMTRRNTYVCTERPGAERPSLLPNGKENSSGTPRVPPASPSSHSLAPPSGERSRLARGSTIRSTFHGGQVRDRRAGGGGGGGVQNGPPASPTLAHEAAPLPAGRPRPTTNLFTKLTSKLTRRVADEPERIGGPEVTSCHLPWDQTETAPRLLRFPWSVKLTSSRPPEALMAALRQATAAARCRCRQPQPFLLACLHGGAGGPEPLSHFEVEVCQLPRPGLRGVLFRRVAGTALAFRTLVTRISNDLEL

[6] = target: Serine/threonine-protein kinase RIO2 (Homo sapiens) (UniProt Q9BVS4); details: Compound concentration 1000.0 nM
[7] = target: Casein kinase I isoform gamma-1 (Homo sapiens) (UniProt Q9HCP0); details: Compound concentration 1000.0 nM
[8] = target: Focal adhesion kinase 1 (Homo sapiens) (UniProt Q05397); details: Compound concentration 1000.0 nM
[9] = target: Dual specificity protein kinase CLK4 (Homo sapiens) (UniProt Q9HAZ1); details: Compound concentration 1000.0 nM
[10] = target: Insulin receptor (Homo sapiens) (UniProt P06213); details: Compound concentration 1000.0 nM
[11] = target: Mitogen-activated protein kinase kinase kinase 12 (Homo sapiens) (UniProt Q12852); details: Compound concentration 1000.0 nM
[12] = target: Inhibitor of nuclear factor kappa-B kinase subunit epsilon (Homo sapiens) (UniProt Q14164); details: Compound concentration 1000.0 nM
[13] = target: Non-receptor tyrosine-protein kinase TNK1 (Homo sapiens) (UniProt Q13470); details: Compound concentration 1000.0 nM
[14] = target: D(1A) dopamine receptor (Homo sapiens) (UniProt P21728); details: Compound concentration 10.0 uM
Sequence of D(1A) dopamine receptor (Homo sapiens) (P21728 whole entry): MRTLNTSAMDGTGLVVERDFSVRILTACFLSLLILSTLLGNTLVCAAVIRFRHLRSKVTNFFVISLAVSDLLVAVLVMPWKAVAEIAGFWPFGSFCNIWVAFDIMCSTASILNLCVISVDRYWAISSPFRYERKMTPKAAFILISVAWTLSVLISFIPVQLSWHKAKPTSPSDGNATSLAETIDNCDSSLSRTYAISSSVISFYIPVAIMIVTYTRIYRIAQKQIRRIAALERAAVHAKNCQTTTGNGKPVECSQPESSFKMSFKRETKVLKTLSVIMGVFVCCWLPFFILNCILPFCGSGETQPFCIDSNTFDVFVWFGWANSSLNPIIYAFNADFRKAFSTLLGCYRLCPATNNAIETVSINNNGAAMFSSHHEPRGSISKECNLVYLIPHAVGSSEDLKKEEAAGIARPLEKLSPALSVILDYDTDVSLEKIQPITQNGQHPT

[15] = target: Protein kinase C delta type (Homo sapiens) (UniProt Q05655); details: Compound concentration 1000.0 nM
[16] = target: Serine/threonine-protein kinase LATS2 (Homo sapiens) (UniProt Q9NRM7); details: Compound concentration 1000.0 nM
[17] = target: Vascular endothelial growth factor receptor 2 (Homo sapiens) (UniProt P35968); details: Compound concentration 1000.0 nM
[18] = target: Serine/threonine-protein kinase MRCK gamma (Homo sapiens) (UniProt Q6DT37); details: Compound concentration 1000.0 nM
[19] = target: Dual specificity protein kinase CLK3 (Homo sapiens) (UniProt P49761); details: Compound concentration 1000.0 nM
[20] = target: Dual specificity protein kinase CLK1 (Homo sapiens) (UniProt P49759); details: Compound concentration 1000.0 nM
[21] = target: Mitogen-activated protein kinase kinase kinase 13 (Homo sapiens) (UniProt O43283); details: Compound concentration 1000.0 nM
[22] = target: Serine/threonine-protein kinase PRP4 homolog (Homo sapiens) (UniProt Q13523); details: Compound concentration 1000.0 nM
[23] = target: Protein kinase C eta type (Homo sapiens) (UniProt P24723); details: Compound concentration 1000.0 nM
[24] = target: Casein kinase I isoform alpha (Homo sapiens) (UniProt P48729); details: Compound concentration 1000.0 nM
[25] = target: Eukaryotic translation initiation factor 2-alpha kinase 1 (Homo sapiens) (UniProt Q9BQI3); details: Compound concentration 1000.0 nM
[26] = target: Dual specificity tyrosine-phosphorylation-regulated kinase 2 (Homo sapiens) (UniProt Q92630); details: Compound concentration 1000.0 nM
[27] = target: Mitogen-activated protein kinase 1 (Homo sapiens) (UniProt P28482); details: Compound concentration 1000.0 nM
[28] = target: Beta-2 adrenergic receptor (Homo sapiens) (UniProt P07550); details: Compound concentration 10.0 uM
[29] = target: Calcium/calmodulin-dependent protein kinase type 1D (Homo sapiens) (UniProt Q8IU85); details: Compound concentration 1000.0 nM
[30] = target: Alpha-2A adrenergic receptor (Homo sapiens) (UniProt P08913); details: Compound concentration 10.0 uM
[31] = tested on: Fibroblast growth factor receptor 3 (Homo sapiens), P22607 [G697C]; details: Compound concentration 1000.0 nM
[32] = tested on: Mast/stem cell growth factor receptor Kit (Homo sapiens), P10721 [A829P]; details: Compound concentration 1000.0 nM
[33] = target: Leucine-rich repeat serine/threonine-protein kinase 2 (Homo sapiens) (UniProt Q5S007); details: Compound concentration 1000.0 nM
Sequence of Leucine-rich repeat serine/threonine-protein kinase 2 (Homo sapiens) (Q5S007 whole entry): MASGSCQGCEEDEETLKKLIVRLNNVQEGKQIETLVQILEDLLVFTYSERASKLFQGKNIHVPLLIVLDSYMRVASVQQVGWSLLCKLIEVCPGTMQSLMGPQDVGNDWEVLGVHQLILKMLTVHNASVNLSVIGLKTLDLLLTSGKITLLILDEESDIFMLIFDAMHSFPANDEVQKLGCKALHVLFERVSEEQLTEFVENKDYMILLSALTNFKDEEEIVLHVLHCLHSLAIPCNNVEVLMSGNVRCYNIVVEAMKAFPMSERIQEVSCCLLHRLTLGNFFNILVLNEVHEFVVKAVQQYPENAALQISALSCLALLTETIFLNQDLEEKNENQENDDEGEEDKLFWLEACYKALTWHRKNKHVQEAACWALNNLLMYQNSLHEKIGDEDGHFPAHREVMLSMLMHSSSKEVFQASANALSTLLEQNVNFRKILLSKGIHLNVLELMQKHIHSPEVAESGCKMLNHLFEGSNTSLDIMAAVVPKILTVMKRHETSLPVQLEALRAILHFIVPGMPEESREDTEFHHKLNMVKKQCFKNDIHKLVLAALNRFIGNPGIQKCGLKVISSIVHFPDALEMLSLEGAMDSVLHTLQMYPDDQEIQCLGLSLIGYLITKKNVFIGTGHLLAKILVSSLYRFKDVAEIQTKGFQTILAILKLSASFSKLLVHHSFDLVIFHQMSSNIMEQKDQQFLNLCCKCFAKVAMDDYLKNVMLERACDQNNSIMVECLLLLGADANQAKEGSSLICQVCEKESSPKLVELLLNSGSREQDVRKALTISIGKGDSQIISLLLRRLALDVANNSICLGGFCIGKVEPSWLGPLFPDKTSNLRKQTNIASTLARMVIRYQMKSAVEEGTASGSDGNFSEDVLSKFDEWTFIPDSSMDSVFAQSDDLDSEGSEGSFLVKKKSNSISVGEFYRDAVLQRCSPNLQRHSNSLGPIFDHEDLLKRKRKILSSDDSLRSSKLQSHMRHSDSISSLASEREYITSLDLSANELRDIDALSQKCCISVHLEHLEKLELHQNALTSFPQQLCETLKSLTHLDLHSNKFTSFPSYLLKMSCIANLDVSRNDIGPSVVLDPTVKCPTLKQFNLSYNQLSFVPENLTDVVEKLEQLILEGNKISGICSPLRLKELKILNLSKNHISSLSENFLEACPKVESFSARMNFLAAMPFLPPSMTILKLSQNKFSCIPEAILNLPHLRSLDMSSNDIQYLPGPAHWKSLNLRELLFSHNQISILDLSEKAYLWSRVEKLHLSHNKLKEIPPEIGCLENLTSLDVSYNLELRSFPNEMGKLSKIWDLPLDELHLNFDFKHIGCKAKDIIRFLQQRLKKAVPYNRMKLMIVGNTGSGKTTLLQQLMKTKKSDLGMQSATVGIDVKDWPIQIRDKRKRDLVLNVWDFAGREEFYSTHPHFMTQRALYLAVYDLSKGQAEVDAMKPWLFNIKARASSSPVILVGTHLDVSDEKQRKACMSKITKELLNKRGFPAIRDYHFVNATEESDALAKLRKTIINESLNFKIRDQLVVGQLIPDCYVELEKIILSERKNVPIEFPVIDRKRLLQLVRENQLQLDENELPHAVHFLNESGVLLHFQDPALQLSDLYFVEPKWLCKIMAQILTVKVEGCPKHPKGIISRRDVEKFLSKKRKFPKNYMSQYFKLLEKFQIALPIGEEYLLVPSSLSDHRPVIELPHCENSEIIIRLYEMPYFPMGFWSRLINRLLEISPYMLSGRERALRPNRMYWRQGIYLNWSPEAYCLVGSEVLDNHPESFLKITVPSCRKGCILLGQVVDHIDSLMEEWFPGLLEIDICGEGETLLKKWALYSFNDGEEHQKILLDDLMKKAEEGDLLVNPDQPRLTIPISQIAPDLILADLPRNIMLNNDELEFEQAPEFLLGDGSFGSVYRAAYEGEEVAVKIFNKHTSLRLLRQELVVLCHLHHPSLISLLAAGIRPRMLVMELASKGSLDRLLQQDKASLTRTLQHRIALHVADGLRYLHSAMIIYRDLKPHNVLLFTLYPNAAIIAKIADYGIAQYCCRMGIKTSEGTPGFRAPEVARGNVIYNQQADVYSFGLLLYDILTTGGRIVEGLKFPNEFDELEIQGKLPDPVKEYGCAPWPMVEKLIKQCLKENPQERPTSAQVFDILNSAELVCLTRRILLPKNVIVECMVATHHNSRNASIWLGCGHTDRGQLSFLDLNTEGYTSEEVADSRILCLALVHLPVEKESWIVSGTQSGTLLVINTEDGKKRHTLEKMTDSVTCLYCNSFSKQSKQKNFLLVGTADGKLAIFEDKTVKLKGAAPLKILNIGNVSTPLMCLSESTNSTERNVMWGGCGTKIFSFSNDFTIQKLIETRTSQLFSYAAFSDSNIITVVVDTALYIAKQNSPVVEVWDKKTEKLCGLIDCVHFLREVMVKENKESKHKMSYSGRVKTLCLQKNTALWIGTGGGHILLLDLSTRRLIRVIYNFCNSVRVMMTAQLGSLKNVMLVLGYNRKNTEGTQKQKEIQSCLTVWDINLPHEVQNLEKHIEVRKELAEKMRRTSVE

[34] = target: Serine/threonine-protein kinase TAO2 (Homo sapiens) (UniProt Q9UL54); details: Compound concentration 1000.0 nM
[35] = target: Receptor tyrosine-protein kinase erbB-2 (Homo sapiens) (UniProt P04626); details: Compound concentration 1000.0 nM
[36] = target: Uncharacterized serine/threonine-protein kinase SBK3 (Homo sapiens) (UniProt P0C264); details: Compound concentration 1000.0 nM
[37] = target: Muscarinic acetylcholine receptor M1 (Homo sapiens) (UniProt P11229); details: Compound concentration 10.0 uM
[38] = target: MAP kinase-activated protein kinase 5 (Homo sapiens) (UniProt Q8IW41); details: Compound concentration 1000.0 nM
[39] = target: Serine/threonine-protein kinase WNK4 (Homo sapiens) (UniProt Q96J92); details: Compound concentration 1000.0 nM
[40] = target: Hepatocyte growth factor receptor (Homo sapiens) (UniProt P08581); details: Compound concentration 1000.0 nM
[41] = tested on: Hepatocyte growth factor receptor (Homo sapiens), P08581 [Y1235D]; details: Compound concentration 1000.0 nM
[42] = target: Mitogen-activated protein kinase kinase kinase kinase 4 (Homo sapiens) (UniProt O95819); details: Compound concentration 1000.0 nM
[43] = target: Interleukin-1 receptor-associated kinase 1 (Homo sapiens) (UniProt P51617); details: Compound concentration 1000.0 nM
Sequence of Interleukin-1 receptor-associated kinase 1 (Homo sapiens) (P51617 whole entry, looked up): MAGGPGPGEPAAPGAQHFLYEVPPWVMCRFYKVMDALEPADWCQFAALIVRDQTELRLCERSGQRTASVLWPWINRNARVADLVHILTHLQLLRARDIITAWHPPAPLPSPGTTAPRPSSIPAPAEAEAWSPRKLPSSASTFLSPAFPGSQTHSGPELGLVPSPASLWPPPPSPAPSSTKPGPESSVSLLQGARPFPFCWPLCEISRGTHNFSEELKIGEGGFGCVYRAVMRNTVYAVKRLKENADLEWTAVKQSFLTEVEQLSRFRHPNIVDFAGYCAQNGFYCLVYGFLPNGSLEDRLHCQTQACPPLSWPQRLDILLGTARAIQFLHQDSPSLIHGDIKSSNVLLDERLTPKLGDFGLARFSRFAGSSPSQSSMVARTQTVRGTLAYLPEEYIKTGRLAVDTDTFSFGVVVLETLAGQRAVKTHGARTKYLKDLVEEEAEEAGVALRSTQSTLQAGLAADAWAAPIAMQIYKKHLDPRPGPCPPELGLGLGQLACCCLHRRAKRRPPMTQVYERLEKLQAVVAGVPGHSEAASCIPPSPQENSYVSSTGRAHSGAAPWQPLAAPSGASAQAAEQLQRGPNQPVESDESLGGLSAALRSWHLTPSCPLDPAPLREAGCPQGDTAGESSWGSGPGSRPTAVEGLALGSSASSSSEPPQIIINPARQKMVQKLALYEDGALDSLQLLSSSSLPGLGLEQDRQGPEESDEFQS

[44] = target: Death-associated protein kinase 1 (Homo sapiens) (UniProt P53355); details: Compound concentration 1000.0 nM
[45] = target: 3-phosphoinositide-dependent protein kinase 1 (Homo sapiens) (UniProt O15530); details: Compound concentration 1000.0 nM

Question: For `CC(=O)C1=C(C)N(c2cccc(C(F)(F)F)c2)C(=O)N[C@@H]1c1ccc(C#N)nc1` [BAY-678], which residual activity [1] is on record?
Answer: Its residual activity is 100%.

Question: What about the residual activity [2] of the same molecule?
Answer: The residual activity was 100%.

Question: And the Ki ([3]; read-out: Ki)?
Answer: The Ki was 4.98 µM.

Question: What about the Ki ([3]; read-out: pKi (converted)) of the same molecule?
Answer: The Ki was 4.9 µM.

Question: What about the residual activity [4] of the same molecule?
Answer: Its residual activity is 100%.

Question: And the residual activity [5]?
Answer: The residual activity was 100%.

Question: And the residual activity [6]?
Answer: Its residual activity is 98%.

Question: What about the residual activity [7] of the same molecule?
Answer: Its residual activity is 100%.

Question: What about the residual activity [8] of the same molecule?
Answer: Its residual activity is 100%.

Question: What about the residual activity [9] of the same molecule?
Answer: Its residual activity is 88.3%.

Question: What about the residual activity [10] of the same molecule?
Answer: Its residual activity is 89.3%.

Question: And the residual activity [11]?
Answer: The residual activity was 86.8%.

Question: What about the residual activity [12] of the same molecule?
Answer: Its residual activity is 98.2%.

Question: What about the residual activity [13] of the same molecule?
Answer: The residual activity was 62.1%.

Question: What about the inhibition [14] of the same molecule?
Answer: Its inhibition is -8.4%.

Question: And the residual activity [15]?
Answer: Its residual activity is 100%.

Question: And the residual activity [16]?
Answer: The residual activity was 100%.

Question: What about the residual activity [17] of the same molecule?
Answer: Its residual activity is 84%.

Question: And the residual activity [18]?
Answer: Its residual activity is 79.3%.

Question: What about the residual activity [19] of the same molecule?
Answer: Its residual activity is 100%.

Question: And the residual activity [20]?
Answer: Its residual activity is 100%.

Question: What about the residual activity [21] of the same molecule?
Answer: Its residual activity is 92.4%.

Question: What about the residual activity [22] of the same molecule?
Answer: Its residual activity is 100%.

Question: And the residual activity [23]?
Answer: The residual activity was 91.3%.

Question: What about the residual activity [24] of the same molecule?
Answer: Its residual activity is 91.5%.

Question: And the residual activity [25]?
Answer: Its residual activity is 100%.

Question: And the residual activity [26]?
Answer: Its residual activity is 100%.

Question: And the residual activity [27]?
Answer: The residual activity was 98.9%.

Question: And the inhibition [28]?
Answer: The inhibition was 24.3%.

Question: And the residual activity [29]?
Answer: Its residual activity is 79.4%.

Question: And the inhibition [30]?
Answer: Its inhibition is 10.5%.

Question: What about the residual activity [31] of the same molecule?
Answer: The residual activity was 100%.

Question: And the residual activity [32]?
Answer: The residual activity was 80.8%.

Question: What about the residual activity [33] of the same molecule?
Answer: The residual activity was 80.7%.

Question: What about the residual activity [34] of the same molecule?
Answer: The residual activity was 94.4%.

Question: What about the residual activity [35] of the same molecule?
Answer: The residual activity was 95.6%.

Question: And the residual activity [36]?
Answer: The residual activity was 100%.

Question: And the inhibition [37]?
Answer: The inhibition was -4.65%.

Question: What about the residual activity [38] of the same molecule?
Answer: Its residual activity is 100%.

Question: And the residual activity [39]?
Answer: Its residual activity is 100%.

Question: And the residual activity [40]?
Answer: Its residual activity is 98.1%.

Question: What about the residual activity [41] of the same molecule?
Answer: The residual activity was 100%.

Question: What about the residual activity [42] of the same molecule?
Answer: Its residual activity is 99.3%.

Question: What about the residual activity [43] of the same molecule?
Answer: Its residual activity is 100%.

Question: What about the residual activity [44] of the same molecule?
Answer: Its residual activity is 93.8%.

Question: What about the residual activity [45] of the same molecule?
Answer: Its residual activity is 93.4%.
